Series [1] can be described thus: Intrinsic clearance in mouse liver microsomes measured per mg protein. To be noted: read-out: CLH. The format is ADME, Microsome. (Microsomes from liver hold many membrane-bound enzymes, among them those of drug oxidation.)
For series [2], the target named is T1, Receptor-interacting serine/threonine-protein kinase 1 (Homo sapiens, UniProt Q13546).
T1 sequence (Q13546 whole entry): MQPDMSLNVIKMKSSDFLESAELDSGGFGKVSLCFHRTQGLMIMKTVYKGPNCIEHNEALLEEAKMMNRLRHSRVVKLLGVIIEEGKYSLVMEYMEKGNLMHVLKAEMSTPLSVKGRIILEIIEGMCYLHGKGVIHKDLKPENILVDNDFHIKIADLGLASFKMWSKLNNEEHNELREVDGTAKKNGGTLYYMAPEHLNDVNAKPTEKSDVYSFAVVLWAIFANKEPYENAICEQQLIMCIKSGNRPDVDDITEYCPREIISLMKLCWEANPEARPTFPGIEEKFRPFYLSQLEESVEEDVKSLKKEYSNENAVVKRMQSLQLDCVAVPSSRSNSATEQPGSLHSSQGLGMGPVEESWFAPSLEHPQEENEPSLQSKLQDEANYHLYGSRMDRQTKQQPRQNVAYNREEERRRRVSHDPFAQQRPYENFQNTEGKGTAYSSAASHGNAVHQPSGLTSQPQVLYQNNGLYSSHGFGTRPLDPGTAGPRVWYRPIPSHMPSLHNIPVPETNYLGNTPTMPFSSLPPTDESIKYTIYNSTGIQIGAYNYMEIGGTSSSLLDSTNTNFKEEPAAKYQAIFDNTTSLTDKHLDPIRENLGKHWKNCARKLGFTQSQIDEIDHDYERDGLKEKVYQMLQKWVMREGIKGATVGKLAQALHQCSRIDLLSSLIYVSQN
As to the kind of experiment: Inhibition of human RIPK1 by ADP-Glo kinase assay. For orientation: ADP-Glo turns the ADP formed in a reaction into a luminescent signal.

The nature of series [3]: Intrinsic clearance in human liver microsomes measured per mg protein. The format is ADME, Microsome. Particulars: read-out: CLH.
Series [4] can be described thus: Plasma concentration in non-fasted NMRI mouse at 10 mg/kg, po measured after 2 hrs by HPLC-MS analysis. The format is ADME, organism-based.
The nature of series [5]: Plasma concentration in non-fasted NMRI mouse at 10 mg/kg, po measured after 0.5 hrs by HPLC-MS analysis. The format is ADME, organism-based.
For the next series, the system named is Mus musculus. As to the kind of experiment: In vivo inhibition of RIPK1 in TNF-alpha-induced acute hypothermia NMRI mouse model assessed as decrease in TNF-alpha-induced severe core body temperature loss at 30 mg/kg, po administered 15 mins prior to TNF-alpha challenge and measured at 90 mins interval for 6 hrs. The format is functional, organism-based. Particulars: time 375.0 min.

Active and inactive are the calls of the source. The rule behind the calls is not given here.

Usually Ki stands for the dissociation constant of the complex between target and ligand, obtained from inhibition or displacement.

Take `CN1C(=O)C(C(=O)Nc2cn(Cc3ccccc3)cn2)CCc2cc(Br)ccc21` (configuration not stated): the results for the microsomal CLint in series [1] and in series [3] were 176 µL/min/mg and 31.1 µL/min/mg, respectively. Affinity in series [2] was put at a Ki of 363 nM.

With `CN1C(=O)C(C(=O)Nc2cn(Cc3ccccc3)cn2)CCc2ccc(C#CC3(O)COC3)cc21` (configuration not stated), the microsomal CLint in series [1] was 128 µL/min/mg; in series [3] it was 44.4 µL/min/mg. In series [2], this compound gave a Ki of 38 nM.

Turning to `CN1C(=O)C(C(=O)Nc2cn(Cc3ccccc3)cn2)CCc2ccc(Br)cc21` (configuration not stated), the microsomal CLint came out at 211 µL/min/mg in series [1] and 75.7 µL/min/mg in series [3]. The compound further gave a Ki in series [2] of 87.1 nM.

Regarding `CC(=O)NC(C)(C)C#Cc1ccc2c(c1)N(C)C(=O)C(C(=O)Nc1cn(Cc3ccccc3)cn1)CC2` (configuration not stated), the values for the microsomal CLint in series [1] and in series [3] were 29 µL/min/mg and 7.7 µL/min/mg, respectively. In series [2], this compound had a Ki of 27.5 nM.

For the compound `CN1C(=O)C(C(=O)Nc2cn(Cc3ccccc3)cn2)CCc2ccc(C#CC(C)(C)N)cc21` (configuration not stated), the results for the microsomal CLint in series [1] and in series [3] were 50.8 µL/min/mg and 21.1 µL/min/mg, respectively. This compound also gave a Ki in series [2] of 66.1 nM.

Regarding `CN1C(=O)C(C(=O)Nc2cn(Cc3ccccc3)cn2)CCc2ccc(C#CC(C)(C)O)cc21` (racemic), the microsomal CLint in series [1] amounted to 158 µL/min/mg; in series [3], 26.5 µL/min/mg. In series [2], the affinity corresponds to a Ki of 58.9 nM.

Consider `COC(C)(C)C#Cc1ccc2c(c1)N(C)C(=O)C(C(=O)Nc1cn(Cc3ccccc3)cn1)CC2` (configuration not stated), for which the microsomal CLint in series [1] came to 210 µL/min/mg; in series [3], 194 µL/min/mg. This compound also showed a Ki in series [2] of 25.7 nM.

`CN1C(=O)[C@@H](NC(=O)c2nnc(Cc3ccccc3)[nH]2)COc2cccnc21` [ECLITASERTIB]: in series [2], the affinity corresponds to a Ki of 2 nM.

Take `CN1C(=O)C(C(=O)Nc2cn(Cc3ccccc3)cn2)CCc2ccc(C#CC3CCOCC3)cc21` (configuration not stated): the microsomal CLint in series [1] was determined as 234 µL/min/mg; in series [3], 106 µL/min/mg. This compound gave an inhibition constant Ki in series [2] of 22.4 nM.

Turning to `CN1C(=O)C(C(=O)Nc2cn(Cc3ccccc3)cn2)CCc2ccc(C#CC3CC3)cc21` (configuration not stated), the microsomal CLint in series [1] was 300 µL/min/mg; in series [3], 66.5 µL/min/mg. The compound further gave a Ki in series [2] of 28.8 nM.

Turning to `CN1C(=O)C(C(=O)Nc2cn(Cc3ccccc3)cn2)CCc2cc(C#CC3(O)COC3)ccc21` (configuration not stated), the microsomal CLint in series [1] came to 42.2 µL/min/mg; in series [3], 18.2 µL/min/mg. In series [2], the Ki was 191 nM.

On to `CN1C(=O)C(C(=O)Nc2cn(Cc3ccccc3)cn2)CCc2cc(C#CC(C)(C)O)ccc21` (configuration not stated), for which the microsomal CLint is 29.4 µL/min/mg in series [1] and 6.6 µL/min/mg in series [3]. The Ki in series [2] is 251 nM.

On to `CN1C(=O)[C@H](C(=O)Nc2cn(Cc3ccccc3)cn2)CCc2ccc(C#CC(C)(C)O)cc21`, for which the values for the microsomal CLint in series [1] and in series [3] were 202 µL/min/mg and 32.7 µL/min/mg, respectively. Besides, in series [2], affinity was put at a Ki of 398 nM.

`CN1C(=O)[C@@H](C(=O)Nc2cn(Cc3ccccc3)cn2)CCc2ccc(C#CC(C)(C)O)cc21` gave a concentration at 2 h in series [4] of 329 nM. Also, the concentration at 0.5 h in series [5] was 1340 nM. The microsomal CLint turned out to be 33 µL/min/mg in series [1] and 7.6 µL/min/mg in series [3]. The affinity in series [2] corresponds to a Ki of 11.5 nM. Also, the inhibition entry with Mus musculus is “Active”.

With `CN1C(=O)C(C(=O)Nc2cn(Cc3ccccc3)cn2)CCc2ccc(C#CC3(C)COC3)cc21` (configuration not stated), the microsomal CLint turned out to be 238 µL/min/mg in series [1] and 124 µL/min/mg in series [3]. In addition, the affinity in series [2], expressed as Ki, was 28.2 nM.

For the compound `CC(C)C#Cc1ccc2c(c1)N(C)C(=O)C(C(=O)Nc1cn(Cc3ccccc3)cn1)CC2` (configuration not stated), the microsomal CLint in series [1] is 693 µL/min/mg; in series [3] it was 99 µL/min/mg. This compound also gave a Ki in series [2] of 75.9 nM.

As to `CC#Cc1ccc2c(c1)N(C)C(=O)C(C(=O)Nc1cn(Cc3ccccc3)cn1)CC2` (configuration not stated), the microsomal CLint in series [1] was determined as 312 µL/min/mg; in series [3], 105 µL/min/mg. This compound also showed a Ki in series [2] of 35.5 nM.

For the origin of these results see ChEMBL document CHEMBL6074643, “Harnessing dual-mode RIPK1 ligands for cross-species anti-necroptosis inhibitor compounds” (Bioorg Med Chem Lett, 2024).
